This experiment concerns the target GSK-3β (Homo sapiens, UniProt P49841). The experiment in a line: GSK-3 kinase Z'LYTE assay. The class given is biochemical. The following applies: COB-136 versus COB-187; nitrogen in the pyridine ring replaced by carbon.

Chain of GSK-3β (P49841 whole entry): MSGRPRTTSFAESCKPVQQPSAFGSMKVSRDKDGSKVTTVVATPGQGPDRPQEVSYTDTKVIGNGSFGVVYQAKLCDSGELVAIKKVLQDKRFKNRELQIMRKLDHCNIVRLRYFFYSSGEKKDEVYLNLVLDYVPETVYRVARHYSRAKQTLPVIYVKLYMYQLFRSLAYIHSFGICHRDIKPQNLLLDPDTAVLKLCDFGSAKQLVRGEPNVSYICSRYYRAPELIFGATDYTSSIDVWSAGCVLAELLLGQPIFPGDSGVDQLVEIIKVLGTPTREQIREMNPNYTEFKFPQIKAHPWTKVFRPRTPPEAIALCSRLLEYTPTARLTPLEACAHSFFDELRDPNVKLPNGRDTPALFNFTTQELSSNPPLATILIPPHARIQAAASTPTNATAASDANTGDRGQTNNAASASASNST

Consider `OC1(c2ccccc2)CSC(=S)N1Cc1ccccc1` (stereo not shown) [COB-136], for which the “inhibitory activity (in words)” value is recorded as “dramatically impairs the inhibitory activity”.

(Values after PMC11776921 (Journal of chemical theory and computation, 2024).)
